From US8802694B2, “3,6-diazabicyclo[3.1.1]heptanes as neuronal nicotinic acetycholine receptor ligands” (Targacept, Inc., priority 2009, dated 2014)
Read-outs that look alike come from different tables or passages of the source.

Key:
[1] = target: T1, Human α4β2 (Homo sapiens, UniProt P17787+P43681); experiment: Competition binding to human α4β2 receptors in membranes of SH-EP1/human α4β2 cells ([3H]-nicotine); details: membrane competition binding
T1 construct: host or cells: SH-EP1

[2] = target: T2, Rat α4β2 (Rattus norvegicus, UniProt P09483+P12390); experiment: Competition binding to rat α4β2 receptors in rat cortical membranes; details: rat cortex membranes
T2 construct: Rat cortices were obtained from Analytical Biological Services; tissue Analytical Biological Services, Incorporated (ABS, Wilmington, Del.); host or cells: rat cortex (female Sprague-Dawley)
Protocol: Preparation of membranes from rat tissues. Rat cortices were obtained from Analytical Biological Services, Incorporated (ABS, Wilmington, Del.). Tissues were dissected from female Sprague-Dawley rats, frozen and shipped on dry ice. Tissues were stored at −20° C. until needed for membrane preparation. […] The resulting homogenate was centrifuged at 40,000 g for 20 minutes at 4° C. and the resulting pellet was resuspended in 20 volumes of ice-cold water. After 60-minute incubation at 4° C., a new pellet was collected by centrifugation at 40,000 g for 20 minutes at 4° C. The final pellet was resuspended in preparative buffer and stored at −20° C. On the day of the assay, tissue was thawed, centrifuged at 40,000 g for 20 minutes and then resuspended in PBS (Dulbecco's Phosphate Buffered Saline, Life Technologies, pH 7.4) to a final concentration of 2-3 mg protein/mL. Protein concentrations were determined using the Pierce BCA Protein Assay kit (Pierce Biotechnology, Rockford, Ill.), with bovine serum albumin as the standard.
Competition binding to receptors in membrane preparations. […] In brief, membranes were reconstituted from frozen stocks (approximately 0.2 mg protein) and incubated for 2 h on ice in […] assay buffer (PBS) in the presence of competitor compound (0.001 nM to […]) and radioligand. [^3H]-nicotine (L-(−)-[N-methyl-3H]-nicotine, 69.5 Ci/mmol, Perkin-Elmer Life Sciences) was used for human α4β2 binding studies. [^3H]-epibatidine (52 Ci/mmol, Perkin-Elmer Life Sciences) was used for binding studies at the other receptor subtypes. […] Filters were washed 3 times and the radioactivity retained was determined by liquid scintillation counting.
Binding data analysis. Binding data were expressed as percent total control binding. Replicates for each point were averaged and plotted against the log of drug concentration.

[3] = target: T3, α6β3β4α5 (Homo sapiens, UniProt P30926+Q15825); experiment: Competition binding to α6β3β4α5 receptors in membranes of SH-EP1/α6β3β4α5 cells ([3H]-epibatidine); details: membrane competition binding, read-out: α6β3β4α5 Ki
T3 construct: host or cells: SH-EP1

| Compound | Ki ([1]; read-out: Human α4β2 Ki) [nM] | further results |
| --- | --- | --- |
| O=C([C@@H]1CCCO1)N1CC2CC(C1)N2 | 370 |  |
| O=C(N1CC2CC(C1)N2)C1(C(F)(F)F)CCC1 | 6300 |  |
| CC1(C)CC(C(=O)N2CC3CC(C2)N3)C1 |  | Ki ([1]; Human α4β2 Ki): 69 nM; Ki ([2]; read-out: Rat α4β2 Ki): 520 nM |
| O=C(CC1CCCO1)N1CC2CC(C1)N2 (stereo not drawn) | 2900 |  |
| CC(=O)NCCC(=O)N1CC2CC(C1)N2 | 3400 |  |
| CC(=O)NCCCC(=O)N1CC2CC(C1)N2 | 1900 |  |
| O=C([C@H]1CCCO1)N1CC2CC(C1)N2 | 400 |  |
| Cc1nocc1C(=O)N1CC2CC(C1)N2 |  | Ki ([1]; Human α4β2 Ki): 53 nM; Ki ([2]; Rat α4β2 Ki): 60 nM |
| CC(C)CC(=O)N1CC2CC(C1)N2 |  | Ki ([1]; Human α4β2 Ki): 34 nM; Ki ([2]; Rat α4β2 Ki): 70 nM |
| O=C(C1CC=CCC1)N1CC2CC(C1)N2 (stereo not drawn) | 120 | Ki ([2]; read-out: Rat α4β2 Ki): 390 nM |
| O=C(c1cnc(Cl)c(Cl)c1)N1CC2CC(C1)N2 | 1500 |  |
| Cc1cc(C(=O)N2CC3CC(C2)N3)no1 | 1100 |  |
| O=C(CC1C=CCC1)N1C2CNCC1C2 (stereo not drawn) | 150 | Ki ([2]; Rat α4β2 Ki): 71 nM |
| O=C(C1Cc2ccccc2C1)N1C2CNCC1C2 | 3000 |  |
| O=C(COCc1ccccc1)N1C2CNCC1C2 | 1400 |  |
| O=C(CCOc1ccc(F)cc1)N1C2CNCC1C2 | 1200 |  |
| O=C(C1Cc2ccccc21)N1C2CNCC1C2 (stereo not drawn) | 9400 |  |
| CO[C@H](C(=O)N1C2CNCC1C2)c1ccccc1 | 7100 |  |
| O=C(Cc1c[nH]c2ccccc12)N1C2CNCC1C2 | 2200 |  |
| O=C(COc1ccc(F)cc1)N1C2CNCC1C2 | 1300 |  |
| O=C(CC1CCCO1)N1C2CNCC1C2 (stereo not drawn) | 2000 |  |
| O=C([C@@H]1CCCO1)N1C2CNCC1C2 | 750 |  |

| Compound | Ki ([1]; read-out: Human α4β2 Ki) [nM] | further results |
| --- | --- | --- |
| O=C(CC1CCOCC1)N1C2CNCC1C2 | 3300 |  |
| Cn1c(C(=O)N2C3CNCC2C3)cc2ccccc21 | 2900 |  |
| O=C(C1CCOCC1)N1C2CNCC1C2 | 2000 |  |
| O=C(C1CC=CC1)N1CC2CC(C1)N2 |  | Ki ([1]; Human α4β2 Ki): 37 nM; Ki ([2]; Rat α4β2 Ki): 260 nM |
| COCC(=O)N1CC2CC(C1)N2 |  | Ki ([1]; Human α4β2 Ki): 79 nM; Ki ([2]; Rat α4β2 Ki): 50 nM |
| CCC(C)C(=O)N1CC2CC(C1)N2 (stereo not drawn) | 150 | Ki ([2]; read-out: Rat α4β2 Ki): 240 nM |
| O=C(C1CNC1)N1CC2CC(C1)N2 | 430 |  |
| O=C(C1CC2CCC1C2)N1CC2CC(C1)N2 (stereo not drawn) |  | Ki ([1]; Human α4β2 Ki): 60 nM; Ki ([2]; read-out: Rat α4β2 Ki): 220 nM |
| O=C(c1ccnc(Cl)c1)N1CC2CC(C1)N2 | 450 |  |
| O=C(C1CCCC1)N1CC2CC(C1)N2 |  | Ki ([1]; Human α4β2 Ki): 170 nM; Ki ([2]; Rat α4β2 Ki): 77 nM |
| O=C(c1cc(Cl)cc(Cl)c1)N1CC2CC(C1)N2 | 3300 |  |
| O=C(C1CCC1)N1CC2CC(C1)N2 |  | Ki ([1]; Human α4β2 Ki): 28 nM; Ki ([2]; Rat α4β2 Ki): 6.8 nM |
| O=C(C1CC=CC1)N1C2CNCC1C2 | 810 |  |
| COCC(=O)N1C2CNCC1C2 | 410 |  |
| CCC(C)C(=O)N1C2CNCC1C2 (stereo not drawn) | 290 |  |
| O=C(C1CC2CCC1C2)N1C2CNCC1C2 (stereo not drawn) | 1700 |  |
| O=C(c1ccnc(Cl)c1)N1C2CNCC1C2 | 970 |  |
| CC1(C)C(C(=O)N2C3CNCC2C3)C1(C)C | 11000 |  |
| CC1CC1C(=O)N1C2CNCC1C2 (stereo not drawn) |  | Ki ([1]; Human α4β2 Ki): 46 nM; Ki ([2]; Rat α4β2 Ki): 34 nM |
| O=C(C1CCCC1)N1C2CNCC1C2 | 420 |  |
| O=C(c1cc(Cl)cc(Cl)c1)N1C2CNCC1C2 | 1200 | Ki [3]: 14000 nM |
| Cc1cc(C(=O)N2C3CNCC2C3)no1 |  | Ki ([1]; Human α4β2 Ki): 100 nM; Ki ([2]; Rat α4β2 Ki): 50 nM |

| Compound | Ki ([1]; read-out: Human α4β2 Ki) [nM] | further results |
| --- | --- | --- |
| Cc1ncoc1C(=O)N1C2CNCC1C2 | 140 | Ki ([2]; read-out: Rat α4β2 Ki): 250 nM |
| Cc1nocc1C(=O)N1C2CNCC1C2 | 1100 |  |
| O=C(c1cnco1)N1C2CNCC1C2 |  | Ki ([1]; Human α4β2 Ki): 72 nM; Ki ([2]; Rat α4β2 Ki): 17 nM |
| CC(C)C(=O)N1C2CNCC1C2 | 260 |  |
| CC(C)CC(=O)N1C2CNCC1C2 | 120 | Ki ([2]; Rat α4β2 Ki): 59 nM |
| O=C(C1CC=CCC1)N1C2CNCC1C2 (stereo not drawn) | 1200 |  |
| CC1(C)CC(C(=O)N2C3CNCC2C3)C1 | 760 |  |
| O=C(CC1C=CCC1)N1CC2CC(C1)N2 (stereo not drawn) |  | Ki ([1]; Human α4β2 Ki): 11 nM; Ki ([2]; Rat α4β2 Ki): 34 nM |
| O=C(CC1CCCC1)N1CC2CC(C1)N2 | 440 |  |
| O=C(C1Cc2ccccc2C1)N1CC2CC(C1)N2 | 800 |  |
| O=C(COCc1ccccc1)N1CC2CC(C1)N2 | 1000 |  |
| O=C(CCOc1ccc(F)cc1)N1CC2CC(C1)N2 | 660 |  |
| O=C(C1Cc2ccccc21)N1CC2CC(C1)N2 (stereo not drawn) | 2000 |  |
| CO[C@H](C(=O)N1CC2CC(C1)N2)c1ccccc1 | 950 |  |
| O=C(CC1CCOC1)N1CC2CC(C1)N2 (stereo not drawn) | 240 |  |
| O=C(Cc1c[nH]c2ccccc12)N1CC2CC(C1)N2 | 750 |  |
| O=C(COc1ccc(F)cc1)N1CC2CC(C1)N2 | 360 |  |
| O=C(CC1CCOCC1)N1CC2CC(C1)N2 | 2800 |  |
| Cn1c(C(=O)N2CC3CC(C2)N3)cc2ccccc21 | 420 |  |
| O=C(C1CCOCC1)N1CC2CC(C1)N2 | 320 |  |
| O=C(CC1CC1)N1CC2CC(C1)N2 |  | Ki ([1]; Human α4β2 Ki): 64 nM; Ki ([2]; Rat α4β2 Ki): 17 nM |
| O=C([C@H]1C[C@H]1F)N1C2CNCC1C2 |  | Ki ([1]; Human α4β2 Ki): 3.7 nM; Ki ([2]; Rat α4β2 Ki): 0.89 nM |

| Compound | Ki ([1]; read-out: Human α4β2 Ki) [nM] | further results |
| --- | --- | --- |
| O=C([C@H]1C[C@@H]1F)N1C2CNCC1C2 |  | Ki ([1]; Human α4β2 Ki): 2.2 nM; Ki ([2]; Rat α4β2 Ki): 1 nM |
| O=C(COc1ccc(Cl)c(Cl)c1)N1CC2CC(C1)N2 | 330 | Ki [3]: 700 nM |
| O=C(NCc1ccc(Cl)cc1)N1C2CNCC1C2 | 6500 | Ki [3]: 3400 nM |
| O=C(NCc1ccc(Cl)cc1Cl)N1C2CNCC1C2 | 1100 | Ki [3]: 21000 nM |
| O=C(NCc1ccc(Cl)c(Cl)c1)N1C2CNCC1C2 | 3100 | Ki [3]: 5900 nM |
| O=C(C1C2C3CCC(C3)C12)N1CC2CC(C1)N2 (stereo not drawn) | 1300 | Ki [3]: 22000 nM |
| CCC1(CC)CC1C(=O)N1C2CNCC1C2 (stereo not drawn) | 850 | Ki [3]: 4400 nM |
| C[C@@H]1C[C@@H]1C(=O)N1CC2CC(C1)N2 | 22 |  |
| O=C(OCCF)N1CC2CC(C1)N2 [3-(2-fluoroethoxy)carbonyl-3,6-diazabicyclo[3.1.1]heptane] |  | Ki ([1]; Human α4β2 Ki): 5.9 nM; Ki ([2]; Rat α4β2 Ki): 52 nM |
| COCCC(=O)N1CC2CC(C1)N2 [3-(2-methoxyethyl)carbonyl-3,6-diazabicyclo[3.1.1]heptane] |  | Ki ([1]; Human α4β2 Ki): 72 nM |
| O=C(c1ccno1)N1CC2CC(C1)N2 [3-(isoxazol-5-yl)carbonyl-3,6-diazabicyclo[3.1.1]heptane] | 150 |  |
| O=C(C1CCOC1)N1CC2CC(C1)N2 (stereo not drawn) [3-(tetrahydrofuran-3-yl)carbonyl-3,6-diazabicyclo[3.1.1]heptane] | 270 |  |
| CC(C)OC(=O)N1CC2CC(C1)N2 [3-isopropoxycarbonyl-3,6-diazabicyclo[3.1.1]heptane] | 130 |  |
| COCCOC(=O)N1CC2CC(C1)N2 [3-methoxyethoxycarbonyl-3,6-diazabicyclo[3.1.1]heptane] | 120 |  |
| CC(=O)N1CC2CC(C1)N2 [3-methylcarbonyl-3,6-diazabicyclo[3.1.1]heptane] |  | Ki ([1]; Human α4β2 Ki): 170 nM |
| CCCOC(=O)N1CC2CC(C1)N2 [3-propoxycarbonyl-3,6-diazabicyclo[3.1.1]heptane] |  | Ki ([1]; Human α4β2 Ki): 24 nM |
| O=C(c1ccc(Br)o1)N1C2CNCC1C2 [6-(2-bromorofuran-5-yl)carbonyl-3,6-diazabicyclo[3.1.1]heptane] |  | Ki ([1]; Human α4β2 Ki): 66 nM; Ki ([2]; read-out: Rat α4β2 Ki): 260 nM |
| O=C(c1ccc(Cl)o1)N1C2CNCC1C2 [6-(2-chlorofuran-5-yl)carbonyl-3,6-diazabicyclo[3.1.1]heptane] |  | Ki ([1]; Human α4β2 Ki): 38 nM; Ki ([2]; Rat α4β2 Ki): 44 nM |
| COCCC(=O)N1C2CNCC1C2 [6-(2-methoxyethyl)carbonyl-3,6-diazabicyclo[3.1.1]heptane] | 370 |  |
| O=C(C1CCC1)N1C2CNCC1C2 [6-cyclobutylcarbonyl-3,6-diazabicyclo[3.1.1]heptane] |  | Ki ([1]; Human α4β2 Ki): 14 nM; Ki ([2]; Rat α4β2 Ki): 26 nM |
